Assay results as given in paper PMC9029776, “Development and Experimental Validation of Regularized Machine Learning Models Detecting New, Structurally Distinct Activators of PXR” (Cells, 2022).

Columns and labels:
[1] = biological target: T1, pregnane X receptor (PXR) (Homo sapiens, UniProt O75469); test: mammalian two-hybrid PXR-LBD assembly assay in HepG2; format: cell-based; conditions: hepg2, 10 µM
T1 construct: gene NR1I2; PXR-LBD (132-188) + (189-434)
T1 sequence (O75469 132-188): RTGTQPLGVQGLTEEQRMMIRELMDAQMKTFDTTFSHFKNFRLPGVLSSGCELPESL
T1 sequence (O75469 189-434): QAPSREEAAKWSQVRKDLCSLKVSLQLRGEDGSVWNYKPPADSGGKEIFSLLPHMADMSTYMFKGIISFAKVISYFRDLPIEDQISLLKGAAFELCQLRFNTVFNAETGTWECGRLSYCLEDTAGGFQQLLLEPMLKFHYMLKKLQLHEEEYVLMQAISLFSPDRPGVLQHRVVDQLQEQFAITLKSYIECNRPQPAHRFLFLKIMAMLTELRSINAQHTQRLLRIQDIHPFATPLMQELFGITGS

[2] = biological target: T2, pregnane X receptor (PXR) (Homo sapiens, UniProt O75469); test: mammalian two-hybrid PXR-LBD assembly assay in HepG2; NCOR2 release, NCOA1 recruitment; SPA70-blocked CYP3A4 reporter; format: cell-based; conditions: hepg2, 10 µM
T2 construct: gene NR1I2; PXR-LBD (132-188) + (189-434) assembly; LBD (108-434) in co-factor assays
T2 sequence (O75469 108-434): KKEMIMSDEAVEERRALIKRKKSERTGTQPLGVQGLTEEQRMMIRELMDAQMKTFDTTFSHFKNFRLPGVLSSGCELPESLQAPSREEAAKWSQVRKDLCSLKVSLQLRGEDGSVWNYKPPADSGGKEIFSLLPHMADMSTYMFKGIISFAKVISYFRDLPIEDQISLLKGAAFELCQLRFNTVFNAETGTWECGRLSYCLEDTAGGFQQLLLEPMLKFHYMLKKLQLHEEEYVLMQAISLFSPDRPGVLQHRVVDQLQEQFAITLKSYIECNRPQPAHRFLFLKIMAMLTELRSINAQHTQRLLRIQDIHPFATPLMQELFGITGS

Substance | Measured Activity ^1 [1] | Measured Activity ^1 [2]
MolPort-000-431-925 [compound 22] | 91.00 % of rifampicin activity at 10 µM | –
MolPort-000-431-927 [compound 42] | – | 115.84 % of rifampicin activity at 10 µM
MolPort-000-431-934 [compound 43] | 71.67 % of rifampicin activity at 10 µM | –
MolPort-002-216-386 [compound 53] | – | 84.18 % of rifampicin activity at 10 µM
MolPort-006-629-818 [compound 34] | 100.91 % of rifampicin activity at 10 µM | –
MolPort-006-630-110 [compound 39] | 80.37 % of rifampicin activity at 10 µM | –
MolPort-006-630-224 [compound 25] | – | 136.87 % of rifampicin activity at 10 µM
